Experiment [1] addresses Serotonin 4 (5-HT4) receptor (Sus scrofa) (UniProt Q6Q253). The experiment in a line: Evaluated for the 5-hydroxytryptamine 4 receptor antagonistic activity in piglet atrium model. The class given is functional, tissue-based. The conditions noted are these: Cardiac atrium.
Experiment [2] deals with Serotonin 3 (5-HT3) receptor (Homo sapiens) (UniProt P46098+A5X5Y0+O95264+Q70Z44+Q8WXA8).
Description: Evaluated for the 5-hydroxytryptamine 3 receptor antagonistic activity in Bezold-Jarisch model expressed as inhibition of the reflex bradycardia induced by an intravenous injection

Chain of Serotonin 4 (5-HT4) receptor (Sus scrofa) (Q6Q253 as listed by the source): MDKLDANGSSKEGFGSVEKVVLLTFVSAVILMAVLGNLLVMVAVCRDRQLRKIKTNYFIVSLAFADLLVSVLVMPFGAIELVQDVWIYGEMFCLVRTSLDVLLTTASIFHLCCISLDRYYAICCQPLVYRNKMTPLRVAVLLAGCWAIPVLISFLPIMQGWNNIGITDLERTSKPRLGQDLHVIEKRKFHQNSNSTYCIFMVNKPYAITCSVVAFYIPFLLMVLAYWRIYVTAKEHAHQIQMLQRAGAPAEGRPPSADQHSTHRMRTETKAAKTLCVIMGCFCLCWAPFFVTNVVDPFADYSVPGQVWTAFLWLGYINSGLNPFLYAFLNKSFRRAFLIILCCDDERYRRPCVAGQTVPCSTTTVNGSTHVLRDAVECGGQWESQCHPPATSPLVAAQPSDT

In experiment [1], `CN1C2CCCC1CC(NC(=O)c1[nH]nc3ccccc13)C2` (stereo not given) showed a -Log KB of 5. The same compound showed an ID50 in experiment [2] of 1 µg/kg.

`CN1[C@@H]2CC[C@H]1C[C@@H](OC(=O)c1c[nH]c3ccccc13)C2`: the -Log KB in experiment [1] came to 6.9. The same compound returned an ID50 in experiment [2] of 1.4 µg/kg.

Regarding `CN1[C@@H]2CC[C@H]1C[C@H](NC(=O)c1nn(C)c3ccccc13)C2`, the -Log KB in experiment [1] came out at 6.5.

In turn, `CN1C2CCC1CC(NC(=O)c1n[nH]c3ccccc13)C2` (stereo not given) returned a -Log KB in experiment [1] of 6.8. Further, in experiment [2], the ID50 was 1.5 µg/kg.

Consider `CN1C2CCC1CC(OC(=O)c1[nH]nc3ccccc13)C2` (stereo not given), for which, in experiment [1], the -Log KB was determined as 7.2. The compound further returned an ID50 in experiment [2] of 5 µg/kg.

`CN1C2CCC1CC(NC(=O)N1CC(C)(C)c3ccccc31)C2` (stereo not given) yielded a -Log KB in experiment [1] of 4.9.

The record behind these values is ChEMBL document CHEMBL1126417, “Indazole as an indole bioisostere: 5-HT4 receptor antagonism” (Bioorg Med Chem Lett, 1992).
